From PubChem BioAssay (NCI)
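Tested at 5 concentrations; 48 h exposure; 96-well plates; endpoints linearly interpolated, else capped at highest concentration. The concentration for 50% growth inhibition is given as GI50. TGI: total growth inhibition.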

How the values were obtained:
Assay in all cases: NCI tumour cell line growth inhibition, 48 h
U251 CNS = test system: U251 CNS
M19-MEL melanoma = test system: M19-MEL melanoma
RPMI-8226 leukemia = test system: RPMI-8226 leukemia
HCC-2998 colon = test system: HCC-2998 colon
MOLT-4 leukemia = test system: MOLT-4 leukemia
KM12 colon = test system: KM12 colon
NCI-H23 lung = test system: NCI-H23 lung
ACHN renal = test system: ACHN renal
DMS 114 small cell lung = test system: DMS 114 small cell lung
LXFL 529 NSCLC = test system: LXFL 529 NSCLC
T-47D breast = test system: T-47D breast

| SMILES | GI50 (U251 CNS) | TGI (U251 CNS) | GI50 (M19-MEL melanoma) | TGI (M19-MEL melanoma) | GI50 (RPMI-8226 leukemia) | TGI (RPMI-8226 leukemia) | GI50 (HCC-2998 colon) | TGI (HCC-2998 colon) | GI50 (MOLT-4 leukemia) | TGI (MOLT-4 leukemia) | GI50 (KM12 colon) | TGI (KM12 colon) | GI50 (NCI-H23 lung) | TGI (NCI-H23 lung) | TGI (ACHN renal) | TGI (DMS 114 small cell lung) | TGI (LXFL 529 NSCLC) | TGI (T-47D breast) | GI50 (ACHN renal) | GI50 (T-47D breast) |
| --- | --- | --- | --- | --- | --- | --- | --- | --- | --- | --- | --- | --- | --- | --- | --- | --- | --- | --- | --- | --- |
| CS(=O)(=O)[O-].CS(=O)(=O)[O-].NC1CCCCC1N.[Pt+4] (configuration not stated) | > 87.2 µM | > 100 µM | 34.2 µM | > 100 µM | 17.7 µM | > 100 µM | > 100 µM | > 100 µM | 29 µM | > 100 µM | > 100 µM | > 100 µM | 88 µM | > 100 µM |  |  |  |  |  |  |
| Cc1nc2c(n1-c1ccccc1)C(=O)c1ccccc1C2=O |  | > 100 µM |  | 40.4 µM |  |  |  | > 100 µM |  | > 100 µM |  | > 100 µM |  | > 100 µM | > 100 µM | 61.3 µM |  |  |  |  |
| C[C@]12CCC(=O)C=C1CC[C@@H]1[C@@H]2[C@@H](O)C[C@@]2(C)[C@H]1CC[C@]2(O)C(=O)COC(=O)CCC1CCCC1 |  | > 100 µM |  | > 100 µM |  |  |  | > 100 µM |  | > 100 µM |  | > 100 µM |  | > 100 µM | > 100 µM | > 100 µM | > 100 µM |  |  |  |
| N#Cc1c(N2CCN(c3ccc([N+](=O)[O-])cc3)CC2)[n+](=O)c2ccc(-c3ccc([N+](=O)[O-])cc3)cc2n1[O-] |  | > 41 µM |  |  |  | > 75 µM |  | > 57.3 µM |  | > 100 µM |  | > 100 µM |  | > 100 µM | > 100 µM |  |  | > 100 µM |  |  |
| N#C/C(C(=O)Nc1ccccc1)=C(/N)N1CCCCC1 |  | > 100 µM |  |  |  | > 100 µM |  | > 100 µM |  | > 100 µM |  | > 100 µM |  | > 100 µM | > 100 µM |  |  | > 100 µM |  |  |
| CC1=NN2C(=N)/C(=C/c3ccccc3)C(=O)N=C2S1 |  | > 100 µM |  |  |  | > 100 µM |  | > 100 µM |  | > 100 µM |  | > 100 µM |  | > 100 µM | > 100 µM |  |  | > 100 µM |  |  |
| COc1ccc2c(c1)C(=O)C1CCC(=O)N1C2c1ccc2c(c1)OCO2 (configuration not stated) |  | 31.5 µM |  |  |  | 12.9 µM |  | 28 µM |  | 11.2 µM |  | 22.2 µM |  | 39.8 µM | 38.3 µM |  |  | 48.5 µM |  |  |
| O=c1c(O)cccn1C1OC(CO)C(O)C1O (configuration not stated) |  | > 100 µM |  |  |  | > 100 µM |  | > 100 µM |  |  |  | > 100 µM |  | > 100 µM | > 100 µM | > 100 µM | > 100 µM |  |  |  |
| Cc1ccc(/C=N\NC(=O)c2ccncc2)s1 |  | > 100 µM |  |  |  | > 100 µM |  | > 100 µM |  | > 100 µM |  | > 100 µM |  | > 100 µM | > 100 µM |  |  | > 100 µM |  |  |
| COc1ccc(NC(=O)CC(=O)N2N=C(N(c3ccccc3)c3ccccc3)CC2c2ccccc2)cc1 (configuration not stated) |  | > 100 µM |  |  |  | > 100 µM |  | > 100 µM |  | > 100 µM |  | > 100 µM |  | > 100 µM | > 100 µM |  |  | > 100 µM |  |  |
| CC(=O)Nc1ccc(/C=C2/NC(=S)N(/C=C3\C(=O)Oc4ccccc4C3=O)C2=O)cc1 |  | > 100 µM |  |  |  | > 100 µM |  | > 100 µM |  | > 100 µM |  | > 100 µM |  | > 100 µM | > 100 µM |  |  | > 100 µM |  |  |
| CC1(C)C=[N+]([O-])C(C)(C)N1O |  | > 10 µM |  |  |  | > 10 µM |  | > 10 µM |  | > 10 µM |  | > 10 µM |  | > 10 µM | > 10 µM |  |  | > 10 µM |  |  |
| Clc1nc2c(C#Cc3ccccc3)ncnc2n1C1CCCCO1 (configuration not stated) |  | 26.2 µM |  |  |  | 35.8 µM |  | 28.7 µM |  | 51.2 µM |  | 35.1 µM |  | 33.5 µM | 30.9 µM |  |  | > 100 µM |  |  |
| CC1=CC[C@](C)(O)[C@@]2(C)CC[C@H]3C(=C(C)C)C(=O)C[C@]3(C)C[C@H]12 |  | > 50 µM |  |  |  | 26.2 µM |  | > 50 µM |  | 25.7 µM |  | > 50 µM |  | > 50 µM | > 50 µM |  |  | > 50 µM |  |  |
| COc1cccc(C23CCCC(C2)N(C)CC3OC(=O)c2ccccc2)c1OC (configuration not stated) |  | > 100 µM |  |  |  | 55.3 µM |  | 78.1 µM |  | 60.3 µM |  | 61.3 µM |  | 44.6 µM | > 100 µM |  |  | 81.2 µM |  |  |
| N#C/C(=C1/c2cc([N+](=O)[O-])ccc2-c2c1cc([N+](=O)[O-])cc2[N+](=O)[O-])N1CCCCC1 |  | > 100 µM |  |  |  | > 100 µM |  | > 100 µM |  | > 100 µM |  | > 100 µM |  | > 100 µM | > 100 µM |  |  | > 100 µM |  |  |
| CC(=O)O[C@H]1CCC2[C@@H]3CCC4NC(=O)C(C#N)C[C@]4(C)C3CC[C@@]21C (some centres not stated) |  | > 10 µM |  |  |  | > 10 µM |  | > 10 µM |  | > 10 µM |  | > 10 µM |  | > 10 µM | > 10 µM |  |  | > 10 µM |  |  |
| COc1ccc(C2SCC(=O)N2NC(=O)C(C)Oc2ccc(Cl)cc2Cl)cc1 (configuration not stated) |  | > 100 µM |  |  |  | > 100 µM |  | > 100 µM |  | 94.6 µM |  | > 100 µM |  | > 100 µM | > 100 µM |  |  | > 100 µM |  |  |
| CC(C#N)N(CCc1ccccc1)C(=O)c1ccccc1 (configuration not stated) |  | > 100 µM |  |  |  | > 100 µM |  | > 100 µM |  | > 100 µM |  | > 100 µM |  | > 100 µM | > 100 µM |  |  | > 100 µM |  |  |
| CC(C)(C)C(=O)N1CCN(C=O)C1=S |  | > 100 µM |  |  |  | > 100 µM |  | > 100 µM |  | > 100 µM |  | > 100 µM |  | > 100 µM | > 100 µM |  |  | > 100 µM |  |  |
| CCN1CCCn2c(=O)[nH]c3cc(Br)cc1c32 |  | > 100 µM |  |  |  | > 100 µM |  | > 100 µM |  | > 100 µM |  | > 100 µM |  | > 100 µM | > 100 µM |  |  | > 100 µM |  |  |
| CC1CN=C(c2ccc(CN3CCC(C4CCN(Cc5ccc(C6=NCC(C)N6)cc5)CC4)CC3)cc2)N1 (configuration not stated) |  | 29.6 µM |  |  |  | 46.2 µM |  | 30.9 µM |  | 46.5 µM |  | 31.8 µM |  | 84.7 µM | 75.9 µM |  |  | 49.4 µM |  |  |
| CCOC(=O)c1c(N)sc2c1C(C(=O)OCC)CCC2 (configuration not stated) |  | > 100 µM |  |  |  | > 100 µM |  | > 100 µM |  | > 100 µM |  | > 100 µM |  | > 100 µM | > 100 µM |  |  | > 100 µM |  |  |
| CNC(=O)N(CCC#N)CCCN(C(=O)N(C)C)c1ccccc1 |  | > 100 µM |  |  |  | > 100 µM |  | > 100 µM |  | > 100 µM |  | > 100 µM |  | > 100 µM | > 100 µM |  |  | > 100 µM |  |  |
| Cc1cc2nc(-c3c(N)ncc(C#N)c3-c3ccc(Cl)cc3)[nH]c2cc1C | 5.48 µM | 21.4 µM |  |  | 5.55 µM | > 100 µM | 20.9 µM | > 100 µM | > 100 µM | > 100 µM | 14.8 µM | > 100 µM | 8.1 µM | 30.7 µM | > 100 µM |  |  | > 100 µM | 11.1 µM | 4.63 µM |
| O=[N+]([O-])c1cc(F)ccc1Sc1ccccc1 |  | > 10 µM |  |  |  | > 10 µM |  | > 10 µM |  | > 10 µM |  | > 10 µM |  | > 10 µM | > 10 µM |  |  | > 10 µM |  |  |
| COc1cc(CNC(=S)CCCCCCCCCCC(C)C)ccc1O |  | > 100 µM |  |  |  | > 100 µM |  | > 100 µM |  | > 100 µM |  | 94.4 µM |  | > 100 µM | > 100 µM |  |  | 97.5 µM |  |  |
| O=C1C(Cl)=C(c2ccc([N+](=O)[O-])cc2)C(=O)c2c(O)cccc21 |  | 2.22 µM |  | 3.52 µM |  | > 100 µM |  | 6.24 µM |  | > 100 µM |  | 3.63 µM |  | 4.14 µM | 2.36 µM | 0.786 µM | 0.94 µM | 5.54 µM |  |  |
